Earlier results in paper PMC5760531, “Action Potential Recording and Pro-arrhythmia Risk Analysis in Human Ventricular Trabeculae” (Frontiers in Physiology, 2018).

Tested on: Nav1.5
Design: method as in Qu and Vargas, 2015
Conditions: previous experiments; ref Qu and Vargas, 2015; cited from earlier work

Nc1nnc(-c2cccc(Cl)c2Cl)c(N)n1 [LAMOTRIGINE, Lamotrigine]
IC50: 40 µM
